Like-named read-outs stand apart in the source and are kept apart here.
Key:
[1] = test system: RNA Polymerase II Serine 5 phosphorylation (Rpb1 CTD, downstream substrate of CDK7) in A549 cells; assay: Imaging-based cellular RNA PolII Ser5 phosphorylation assay in A549 cells; assay type: cell-based, human; details: wild-type CDK7, RNA PolII Ser5 phosphorylation, averaged over all measurements; for IC50: Homo sapiens, A549, A549 cells, read-out: CDK7_A549 Wild-type CDK7 (pIC50) (converted)
Outline: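 A549 cells, seeded 1000/well in DMEM with 1% FBS and cultured 20 h, were treated with compound for 3 h at 37 °C. Ser5-phospho-Rpb1 CTD detected by immunofluorescence imaging after fixation and methanol permeabilization; IC50 from curve fit normalized to DMSO and 10 μM reference-compound controls.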

[2] = test system: RNA Polymerase II Serine 5 phosphorylation in A549 cells overexpressing CDK7-mutant (C312S); assay: Imaging-based cellular RNA PolII Ser5 phosphorylation assay in A549 cells overexpressing CDK7-mutant (C312S); assay type: cell-based, human; details: RNA PolII Ser5 phosphorylation, averaged over all measurements; for IC50: Homo sapiens, A549, A549 cells overexpressing CDK7-mutant (C312S), read-out: CDK7_A549 mutant hCDK7(pIC50) (converted)
Outline: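 A549 cells overexpressing CDK7 C312S (with endogenous wild-type CDK7) were treated with compound for 3 h at 37 °C in 1% FBS medium. Phospho-Rpb1 CTD Ser5 was immunostained after fixation and imaged. IC50 came from curve fit of % control, normalised to DMSO and 10 μM reference-compound controls.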

[3] = molecular target: CDK7/cyclinH/MAT1 trimeric complex (Homo sapiens, UniProt P50613); assay: In vitro CDK7 assay, potency of irreversible covalent inhibitors (kinact/KI), coupled PK/LDH ADP readout at 340 nm; details: for Ki: CDK7 (20 nM enz.) (KI, μM); for kinact: read-out: CDK7 (20 nM enz.) (kinact, s^−1), 20 nM enzyme
[4] = read-out: CDK7 (20 nM enz.) (kinact/KI, M^−1*s^−1), 20 nM enzyme
[5] = read-out: CDK7 (20 nM enz.) (kobs/[I], M^−1*s^−1), 20 nM enzyme

Sequence of CDK7/cyclinH/MAT1 trimeric complex (P50613 whole entry): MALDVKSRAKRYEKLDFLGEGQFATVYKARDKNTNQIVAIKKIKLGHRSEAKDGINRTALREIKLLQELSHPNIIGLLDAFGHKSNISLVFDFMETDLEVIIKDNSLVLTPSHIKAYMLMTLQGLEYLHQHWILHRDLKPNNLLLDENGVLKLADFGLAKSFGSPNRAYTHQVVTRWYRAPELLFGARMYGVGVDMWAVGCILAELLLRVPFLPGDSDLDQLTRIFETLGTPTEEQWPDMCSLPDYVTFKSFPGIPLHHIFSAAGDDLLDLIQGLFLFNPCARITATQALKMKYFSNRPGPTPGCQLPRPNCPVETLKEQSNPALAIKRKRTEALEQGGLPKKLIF
Sequence of CDK7/cyclinH/MAT1 trimeric complex (P51946 whole entry partner): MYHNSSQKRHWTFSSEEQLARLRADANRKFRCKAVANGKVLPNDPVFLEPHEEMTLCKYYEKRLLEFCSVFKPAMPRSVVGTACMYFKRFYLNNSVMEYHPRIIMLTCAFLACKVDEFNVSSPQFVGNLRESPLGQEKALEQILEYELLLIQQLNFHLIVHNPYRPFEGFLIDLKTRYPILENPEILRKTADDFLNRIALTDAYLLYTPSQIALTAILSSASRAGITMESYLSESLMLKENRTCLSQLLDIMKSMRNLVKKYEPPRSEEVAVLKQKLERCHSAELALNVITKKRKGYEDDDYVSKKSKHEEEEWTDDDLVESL
Sequence of CDK7/cyclinH/MAT1 trimeric complex (P51948 whole entry partner): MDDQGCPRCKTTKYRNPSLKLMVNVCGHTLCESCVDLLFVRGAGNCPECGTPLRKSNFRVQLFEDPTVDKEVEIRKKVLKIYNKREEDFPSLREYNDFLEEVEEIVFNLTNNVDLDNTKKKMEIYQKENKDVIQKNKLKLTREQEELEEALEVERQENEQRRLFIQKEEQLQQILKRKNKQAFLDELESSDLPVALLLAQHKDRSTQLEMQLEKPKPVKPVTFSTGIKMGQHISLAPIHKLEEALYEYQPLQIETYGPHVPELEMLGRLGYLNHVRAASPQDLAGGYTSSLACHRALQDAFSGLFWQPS

SMILES: C#Cc1cc2c(cc1C1CCN(C3CN(C(=O)C=C)C3)CC1)Nc1nccc(N3CCOCC3)c1[C@@H](C)O2 (single isomer, unassigned) [Compound 211]
- CDK7_A549 Wild-type CDK7 (pIC50) ([1]; A549 cells): ~5
- CDK7_A549 mutant hCDK7(pIC50) ([2]; A549 cells overexpressing CDK7-mutant (C312S)): <5
- Ki ([3]; 20 nM enzyme): 7.29 µM
- kinact [3]: 7.18e-05 s⁻¹
- kinact/KI [3, 4]: 9.85 M⁻¹ s⁻¹

SMILES: C=CC(=O)N1CC(N2CCO[C@H](c3cc(C)c4c(c3)Nc3nccc(C5CCOCC5)c3CO4)CC2)C1 (single isomer, unassigned) [Compound 219]
- IC50 [1]: 200 nM
- IC50 [2]: > 10000 nM
- Ki ([3]; 20 nM enzyme): 0.311 µM
- kinact [3]: 6.39e-05 s⁻¹
- kinact/KI [3, 4]: 206 M⁻¹ s⁻¹

SMILES: C=CC(=O)N1CC(N2CCO[C@@H](c3cc(C)c4c(c3)Nc3nccc(C5CCOCC5)c3CO4)CC2)C1 (single isomer, unassigned) [Compound 221]
- IC50 [1]: 282 nM
- IC50 [2]: > 10000 nM
- Ki ([3]; 20 nM enzyme): 0.512 µM
- kinact [3]: 7.79e-05 s⁻¹
- kinact/KI [3, 4]: 152 M⁻¹ s⁻¹

SMILES: C=CC(=O)N1CC(N2CC[C@H](c3cc4c(c(C)n3)O[C@H](C)c3c(N5CCOCC5)ccnc3N4)C2)C1 (single isomer, unassigned) [Compound 224]
- IC50 [1]: 3980 nM
- IC50 [2]: > 10000 nM
- kinact/KI [3, 4]: 3 M⁻¹ s⁻¹

SMILES: C=CC(=O)N1CC[C@@H](N2CC(c3cc(C)c4c(c3)Nc3nccc(N5CCOCC5)c3[C@H](C)O4)C2)C1 (single isomer, unassigned) [Compound 227]
- IC50 [1]: 724 nM
- IC50 [2]: > 10000 nM
- Ki ([3]; 20 nM enzyme): 3.01 µM
- kinact [3]: 6.83e-05 s⁻¹
- kinact/KI [3, 4]: 22.7 M⁻¹ s⁻¹

SMILES: C=CC(=O)N1CC[C@@H](N2CC(c3cc(C)c4c(c3)Nc3nccc(N5CCOCC5)c3[C@@H](C)O4)C2)C1 (single isomer, unassigned) [Compound 230]
- IC50 [1]: 20 nM
- IC50 [2]: 6760 nM
- kinact/KI [3, 5]: 791 M⁻¹ s⁻¹

SMILES: C=CC(=O)N1CC[C@H](N2CC(c3cc(C)c4c(c3)Nc3nccc(N5CCOCC5)c3[C@H](C)O4)C2)C1 (single isomer, unassigned) [Compound 231]
- IC50 [1]: 380 nM
- IC50 [2]: > 10000 nM
- Ki ([3]; 20 nM enzyme): 1.61 µM
- kinact [3]: 6.1e-05 s⁻¹
- kinact/KI [3, 4]: 37.8 M⁻¹ s⁻¹

SMILES: C=CC(=O)N1CC(N2CCC(c3ccc4c(c3)Nc3nccc(-c5cnn(C)c5)c3[C@H](C)O4)CC2)C1 (single isomer, unassigned) [Compound 232]
- IC50 [1]: 4170 nM
- IC50 [2]: > 10000 nM
- Ki ([3]; 20 nM enzyme): 10.1 µM
- kinact [3]: 0.000115 s⁻¹
- kinact/KI [3, 4]: 11.3 M⁻¹ s⁻¹

SMILES: C=CC(=O)N1CC(N2CCC(c3ccc4c(c3)Nc3nccc(-c5cnn(C)c5)c3[C@@H](C)O4)CC2)C1 (single isomer, unassigned) [Compound 233]
- IC50 [1]: 28.2 nM
- IC50 [2]: 8710 nM
- kinact/KI [3, 5]: 1450 M⁻¹ s⁻¹

SMILES: C=CC(=O)N1CC[C@H](N2CC(c3cc4c(c(C(F)(F)F)n3)OCc3c(N5CCOCC5)ccnc3N4)C2)C1 (single isomer, unassigned) [Compound 234]
- IC50 [1]: 95.5 nM
- IC50 [2]: 8510 nM
- CDK7 (20 nM enz.) (kobs/[I], M^−1*s^−1) ([3]; 20 nM enzyme): 610.385 M⁻¹ s⁻¹

SMILES: C=CC(=O)N1CC[C@H](N2CC(c3cc4c(c(C(F)(F)F)c3)OCc3c(N5CCOCC5)ccnc3N4)C2)C1 (single isomer, unassigned) [Compound 238]
- IC50 [1]: 40.7 nM
- IC50 [2]: 3310 nM
- kinact/KI [3, 5]: 758 M⁻¹ s⁻¹

SMILES: C=CC(=O)N1CC[C@H](N2CC(c3cc(C)c4c(c3)Nc3nccc(N5CCOCC5)c3[C@@H](C)O4)C2)C1 (single isomer, unassigned) [Compound 239]
- IC50 [1]: 43.7 nM
- IC50 [2]: 7080 nM
- kinact/KI [3, 5]: 1040 M⁻¹ s⁻¹

SMILES: C=CC(=O)N1CC[C@@H](N2CC(c3cc4c(c(C(F)(F)F)c3)OCc3c(N5CCOCC5)ccnc3N4)C2)C1 (single isomer, unassigned) [Compound 240]
- IC50 [1]: 55 nM
- IC50 [2]: 5130 nM
- Ki ([3]; 20 nM enzyme): 0.0242 µM
- kinact [3]: 3.61e-05 s⁻¹
- kinact/KI [3, 4]: 1490 M⁻¹ s⁻¹

SMILES: C=CC(=O)N1CC[C@@H](N2CC(c3cc4c(c(C(F)(F)F)n3)OCc3c(N5CCOCC5)ccnc3N4)C2)C1 (single isomer, unassigned) [Compound 241]
- IC50 [1]: 95.5 nM
- IC50 [2]: 10700 nM
- CDK7 (20 nM enz.) (kinact, s^−1) ([3]; 20 nM enzyme): 3.715e-05 s⁻¹
- Ki ([3]; 20 nM enzyme): 0.0269 µM
- kinact/KI [3, 4]: 1380 M⁻¹ s⁻¹

SMILES: C=CC(=O)N1CC(N2CC[C@@H](c3cc4c(c(C)n3)O[C@@H](C)c3c(N5CCOCC5)ccnc3N4)C2)C1 (single isomer, unassigned) [Compound 243]
- IC50 [1]: 126 nM
- IC50 [2]: > 10000 nM
- Ki ([3]; 20 nM enzyme): 0.0802 µM
- kinact [3]: 3.93e-05 s⁻¹
- kinact/KI [3, 4]: 490 M⁻¹ s⁻¹

SMILES: C=CC(=O)N1CC(N2CC[C@@H](c3cc4c(c(C)n3)O[C@H](C)c3c(N5CCOCC5)ccnc3N4)C2)C1 (single isomer, unassigned) [Compound 245]
- IC50 [1]: 56.2 nM
- IC50 [2]: > 10000 nM
- Ki ([3]; 20 nM enzyme): 0.0559 µM
- kinact [3]: 3.61e-05 s⁻¹
- kinact/KI [3, 4]: 645 M⁻¹ s⁻¹

SMILES: C=CC(=O)N1CC(N2CCC(c3cc4c(c(C)n3)O[C@H](C)c3c(C5CCOCC5)ccnc3N4)CC2)C1 (single isomer, unassigned) [Compound 246]
- IC50 [1]: ~28.8 nM
- IC50 [2]: > 10000 nM
- Ki ([3]; 20 nM enzyme): 0.0946 µM
- kinact [3]: 8.4e-05 s⁻¹
- kinact/KI [3, 4]: 887 M⁻¹ s⁻¹

SMILES: C=CC(=O)N1CC(N2CCC(c3cc4c(c(C)n3)O[C@@H](C)c3c(C5CCOCC5)ccnc3N4)CC2)C1 (single isomer, unassigned) [Compound 247]
- IC50 [1]: 776 nM
- IC50 [2]: > 3980 nM
- Ki ([3]; 20 nM enzyme): 1.57 µM
- kinact [3]: 5.48e-05 s⁻¹
- kinact/KI [3, 4]: 34.8 M⁻¹ s⁻¹

SMILES: C=CC(=O)N1CC(N2CC(c3cc(C)c4c(c3)Nc3nccc(C5CCOCC5)c3[C@@H](C)O4)C2)C1 (single isomer, unassigned) [Compound 251]
- IC50 [1]: 43.7 nM
- IC50 [2]: > 10000 nM
- kinact/KI [3, 5]: 1110 M⁻¹ s⁻¹

SMILES: C=CC(=O)N1CC(N2CC(c3cc(C)c4c(c3)Nc3nccc(C5CCOCC5)c3[C@H](C)O4)C2)C1 (single isomer, unassigned) [Compound 252]
- IC50 [1]: 2510 nM
- IC50 [2]: > 10000 nM
- Ki ([3]; 20 nM enzyme): 25.5 µM
- kinact [3]: 0.000306 s⁻¹
- kinact/KI [3, 4]: 12 M⁻¹ s⁻¹

SMILES: C=CC(=O)N1CC(N2CCCN(C)[C@H](c3cc(C)c4c(c3)Nc3nccc(C5CCOCC5)c3CO4)C2)C1 (single isomer, unassigned) [Compound 255]
- IC50 [1]: 3020 nM
- IC50 [2]: > 10000 nM
- Ki ([3]; 20 nM enzyme): 10.7 µM
- kinact [3]: 3.55e-05 s⁻¹
- kinact/KI [3, 4]: 3.33 M⁻¹ s⁻¹

SMILES: C=CC(=O)N1CC(N2CC[C@@H](c3cc(C)c4c(c3)Nc3nccc(C5CCOCC5)c3CO4)N(C)CC2)C1 (single isomer, unassigned) [Compound 256]
- IC50 [1]: 53.7 nM
- IC50 [2]: 8320 nM
- Ki ([3]; 20 nM enzyme): 0.0827 µM
- kinact [3]: 6.71e-05 s⁻¹
- kinact/KI [3, 4]: 811 M⁻¹ s⁻¹

SMILES: C=CC(=O)N1CC(N2CC[C@H](c3cc(C)c4c(c3)Nc3nccc(C5CCOCC5)c3CO4)N(C)CC2)C1 (single isomer, unassigned) [Compound 257]
- IC50 [1]: 44.7 nM
- IC50 [2]: 7240 nM
- Ki ([3]; 20 nM enzyme): 0.0574 µM
- kinact [3]: 7.95e-05 s⁻¹
- kinact/KI [3, 4]: 1380 M⁻¹ s⁻¹

SMILES: C#Cc1cc(C2CCN(C3CN(C(=O)C=C)C3)CC2)cc2c1O[C@@H](C)c1c(N3CCOCC3)ccnc1N2 (single isomer, unassigned) [Compound 258]
- IC50 [1]: 21.4 nM
- IC50 [2]: 6460 nM
- kinact/KI [3, 5]: 619 M⁻¹ s⁻¹

SMILES: C=CC(=O)N1CC(N2CCCN(C)[C@@H](c3cc(C)c4c(c3)Nc3nccc(C5CCOCC5)c3CO4)C2)C1 (single isomer, unassigned) [Compound 259]
- IC50 [1]: > 10000 nM
- IC50 [2]: > 10000 nM
- Ki ([3]; 20 nM enzyme): 0.675 µM
- kinact [3]: 3.66e-05 s⁻¹
- kinact/KI [3, 4]: 54.2 M⁻¹ s⁻¹
